Measured values as given in US11427567B2, “Imidazolyl pyrimidinylamine compounds as CDK2 inhibitors” (Incyte Corporation, priority 2019, dated 2022).

What follows are molecules tested against CDK2/Cyclin E1 (Homo sapiens (Human), UniProt P24941) (assay: CDK2/Cyclin E1 HTRF enzyme activity assay (Example A)). Conditions: 1 mM ATP.
Assay type: biochemical
Experimental: Assays were conducted in white 384-well polystyrene plates in a final reaction volume of 8 μL. […] HTRF signals were read after 1 hour at room temperature on a PHERAstar FS plate reader (BMG Labtech). Data was analyzed with IDBS XLFit and GraphPad Prism 5.0 software using a three or four parameter dose response curve to determine IC50 for each compound.

IC50, ≤ 0.05 µM:
CC(C)NC(C)c1cccc(-n2cnc(-c3nc(NC4CCN(S(C)(=O)=O)CC4)ncc3C(F)(F)F)c2)c1Cl (stereo not shown) [Example 468, 4-(1-(2-Chloro-3-(1-(isopropylamino)ethyl)phenyl)-1H-imidazol-4-yl)-N-(1-(methylsulfonyl)piperidin-4-yl)-5-(trifluoromethyl)pyrimidin-2-amine]
CC1(NCc2cccc(-n3cnc(-c4nc(NC5CCN(S(C)(=O)=O)CC5)ncc4C(F)(F)F)c3)c2Cl)CCOCC1 [Example 79, 4-(1-(2-Chloro-3-(((4-methyltetrahydro-2H-pyran-4-yl)amino)methyl)phenyl)-1H-imidazol-4-yl)-N-(1-(methylsulfonyl)piperidin-4-yl)-5-(trifluoromethyl)pyrimidin-2-amine]
CN(C)CCOc1ccc(-n2cnc(-c3nc(NC4CCN(S(C)(=O)=O)CC4)ncc3C(F)(F)F)c2)c(C(F)(F)F)n1 [Example 72, 4-(1-(6-(2-(Dimethylamino)ethoxy)-2-(trifluoromethyl)pyridin-3-yl)-1H-imidazol-4-yl)-N-(1-(methylsulfonyl)piperidin-4-yl)-5-(trifluoromethyl)pyrimidin-2-amine]
Cc1nc(-c2nc(NC3CCN(S(C)(=O)=O)CC3)ncc2C(F)(F)F)cn1-c1ccc(N(C)CCO)cc1F [Example 113, 2-((3-Fluoro-4-(2-methyl-4-(2-((1-(methyl-sulfonyl)piperidin-4-yl)amino)-5-(trifluoromethyl)-pyrimidin-4-yl)-1H-imidazol-1-yl)phenyl)(methyl)-amino)ethan-1-ol]
CN1CCN(Cc2ccc(-n3cnc(-c4nc(NC5CCN(S(C)(=O)=O)CC5)ncc4C(F)(F)F)c3)c(Cl)c2)CC1=O [Example 211, 4-(3-Chloro-4-(4-(2-((1-(methylsulfonyl)-piperidin-4-yl)amino)-5-(trifluoromethyl)-pyrimidin-4-yl)-1H-imidazol-1-yl)benzyl)-1-methylpiperazin-2-one]
CS(=O)(=O)N1CCC(Nc2ncc(C(F)(F)F)c(-c3cn(-c4ccc(N5CCC(N6CCCC6)CC5)cc4Cl)cn3)n2)CC1 [Example 146, 4-(1-(2-Chloro-4-(4-(pyrrolidin-1-yl)piperidin-1-yl)-phenyl)-1H-imidazol-4-yl)-N-(1-(methylsulfonyl)-piperidin-4-yl)-5-(trifluoromethyl)-pyrimidin-2-amine]
Cc1nc(-c2nc(NC3CCN(S(C)(=O)=O)CC3)ncc2C(F)(F)F)cn1-c1ccc(C2CN(C[C@@H](C)O)C2)cc1F [Example 421, (R)-1-(3-(3-Fluoro-4-(2-methyl-4-(2-((1-(methylsulfonyl)piperidin-4-yl)amino)-5-(trifluoromethyl)pyrimidin-4-yl)-1H-imidazol-1-yl)phenyl)azetidin-1-yl)propan-2-ol]
CNCc1ccc(-n2cnc(-c3nc(NC4CCN(S(C)(=O)=O)CC4)ncc3C(F)(F)F)c2)c(F)c1 [Example 266, 4-(1-(2-Fluoro-4-((methylamino)methyl)phenyl)-1H-imidazol-4-yl)-N-(1-(methylsulfonyl)piperidin-4-yl)-5-(trifluoromethyl)pyrimidin-2-amine]
CS(=O)(=O)N1CCC(Nc2ncc(C(F)(F)F)c(-c3cn(-c4cccc(CO)c4Cl)cn3)n2)CC1 [Example 84, (2-Chloro-3-(4-(2-((1-(methylsulfonyl)piperidin-4-yl)amino)-5-(trifluoromethyl)pyrimidin-4-yl)-1H-imidazol-1-yl)phenyl)methanol]
Cc1nc(CN2CCCCC2)ccc1-n1cnc(-c2nc(NC3CCN(S(C)(=O)=O)CC3)ncc2C(F)(F)F)c1 [Example 382, 4-(1-(2-Methyl-6-(piperidin-1-ylmethyl)pyridin-3-yl)-1H-imidazol-4-yl)-N-(1-(methylsulfonyl)piperidin-4-yl)-5-(trifluoromethyl)pyrimidin-2-amine]
